This note sets out measurements from article PMC7216467, “Evaluation of neuroprotective and anti-amnesic effects of Elaeagnus umbellata Thunb. On scopolamine-induced memory impairment in mice” (BMC Complementary Medicine and Therapies, 2020).

The test system of data set [1] is scopolamine-induced cognitive impairment in mice. Kind of data set: Novel object recognition test, scopolamine-induced amnesia. Type of data set: in vivo. How it is done:
(§1) After the acclimatization period, in scopolamine-induced amnesia test the Albino male mice were randomly divided into six groups (n = 6) to study the effect of CHF. […] The doses of tested solutions of CHF. […] The treatments were continued for 8 days. In the Y-maze and Novel object recognition tests, scopolamine (1 mg/kg, i.p.) was given to the different groups only on the 8th day, 30 min after the respective treatments, to induce cognitive deficit in mice. One hour after administration of the drugs all animals were subjected to Y-maze and Novel object recognition test following standard procedure.
The detail methodology published, was followed while performing the novel object recognition (NORT) test. NORT consisting of habituation, sample, and test phases. On the day before test, mice were allowed to explore the box (without any object) for 2 min. On the day of test after habituation the sample phase was carried out 60 min after the last treatment on the 8th day. In sample phase each mouse was placed in an open field with two identical objects (plastic ball) for 5 min. The mouse was then returned to its home cage. The apparatus was comprised of a white coloured plywood box (40 cm × 40 cm × 66 cm) with a network floors that could be effortlessly cleaned (with 70%v/v ethanol) after every trial. The apparatus was illuminated by a 60 W light suspended 50 cm over the crate. The arena and objects were cleaned with 70% v/v ethanol between trials to avoid olfactory cues. For short-term memory, the test phase was performed 5 min after the sample phase. In the test phase, each mouse was placed again in the open field in which one of the identical objects had been replaced with a novel object (plastic square). The location of the object was counterbalanced so that one half of the mice in each group saw the novel object on the left side of the box arena, and the other half saw the novel object on the right side of the box arena to eliminate bias of sides. NORT can also be used for encoding and retrieval of spatial memory (long-term memory). A wash-out period of 5 days was allowed before the NORT to assess long-term memory in mice. The procedure was the same as that for short-term memory except that mice were presented in the test phase 24 h after the sample phase exposure. The time spent exploring each object in each phase was recorded manually using a stopwatch. A mouse was scored as exploring when its head was oriented towards the object within a distance of 2 cm or when the nose was in contact with the object. Parameters including the time (in seconds) spent exploring familiar (F) object, time (in seconds) spent exploring the novel (N) object, and total time (in seconds) spent exploring both objects (N + F) were measured separately.

The target of a further data set is T1, BChE (Mus musculus, UniProt Q03311).
T1 construct: supernatants were collected from homogenized part of brain tissues; from tissue; host or cells: mouse frontal cortex and hippocampus homogenate supernatant
Type of data set: in vivo. The conditions noted are these: ex vivo, NORT animals, vs scopolamine treated group. How it is done:
(§2) The frontal cortex (FC) and hippocampus (HC) were dissected out in ice cold 0.1 M phosphate buffer saline (pH 8.0). The tissues were weighed and 20 mg tissue/mL homogenate of brain samples was prepared in phosphate buffer (pH 8.0). The homogenates were centrifuged at 10,000 rpm for 10 min at 4 °C, and the resulting supernatant was used for the estimation of anti-cholinesterase activity following Ellman’s and antioxidants assays.
(§3) Ex vivo analysis of cholinesterase inhibitory potentials was also measured to check the cholinergic hypo function in animal model using the isolated compound CGA and CHF extract.

The target of another data set is T2, AChE (Mus musculus, UniProt P21836).
T2 construct: supernatants were collected from homogenized part of brain tissues; from tissue; host or cells: mouse frontal cortex and hippocampus homogenate supernatant
T2 sequence (P21836 32-614): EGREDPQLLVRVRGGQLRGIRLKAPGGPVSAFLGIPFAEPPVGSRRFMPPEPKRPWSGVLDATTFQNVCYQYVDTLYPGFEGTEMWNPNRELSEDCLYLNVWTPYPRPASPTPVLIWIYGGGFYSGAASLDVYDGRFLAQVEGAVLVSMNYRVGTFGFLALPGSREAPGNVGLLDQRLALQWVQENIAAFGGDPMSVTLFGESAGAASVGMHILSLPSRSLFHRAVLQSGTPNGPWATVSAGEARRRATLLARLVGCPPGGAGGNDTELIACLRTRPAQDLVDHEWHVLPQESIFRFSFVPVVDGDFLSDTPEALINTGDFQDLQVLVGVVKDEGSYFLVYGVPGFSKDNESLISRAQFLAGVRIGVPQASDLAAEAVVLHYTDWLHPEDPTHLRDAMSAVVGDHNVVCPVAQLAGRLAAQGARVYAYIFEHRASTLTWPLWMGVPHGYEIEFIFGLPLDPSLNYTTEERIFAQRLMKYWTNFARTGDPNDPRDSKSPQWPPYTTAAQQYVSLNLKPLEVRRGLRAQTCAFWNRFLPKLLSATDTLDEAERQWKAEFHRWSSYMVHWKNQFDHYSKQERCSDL
Type of data set: in vivo. The conditions noted are these: ex vivo, NORT animals, vs scopolamine treated group. How it is done:
as §2, §3

Another data set relates to mice. The note with it: Swiss albino, mouse, in vivo, po, 72 h. How it is done: All animals were then treated orally with different doses of CHF. […] Immediately after dosing, the mice were observed continuously for 4 h for symptoms of toxicity such as motor activity, convulsions, muscle spasm, tremors, sedation, lacrimation, hypnosis, diarrhoea, salivation, and loss of righting reflex. Mice were then kept under observation up to 72 h for any mortality. The CHF. […] Therefore, according to OECD guidelines, CHF.

The nature of data set [2]: Ex vivo brain DPPH free radicals scavenging activity. Type of data set: in vivo, mice. How it is done:
as §2
(DPPH is a stable violet radical that fades when it is reduced.)

Data set [3] concerns the target T3, Acetyl cholinesterase (Electron-eel Type, VI-S) (Electrophorus electricus, UniProt O42275).
T3 construct: purchased Sigma-Aldrich, Germany
Kind of data set: biochemical. Type of data set: biochemical. How it is done: Ellman assay was used to evaluate E. umbellata fruit extracts and isolated compounds for their anticholinesterase potentials. About 205 μL extract/compound solutions and 5 μL of AChE (0.03 U/mL)/BChE (0.01 U/mL) along with catalyst DTNB (5 μL) were taken in a cuvette and kept at 30 °C in hot water bath for 15 min. […] As a negative control solution all the above mentioned components except extracts and isolated compounds were mixed in the mentioned order.
V is inhibitor dependent rate of reaction while, Vmax is inhibitor independent rate of reaction.

The subject of data set [4] is scopolamine-induced cognitive impairment in mice. Put plainly: Y-maze test, scopolamine-induced amnesia. Type of data set: in vivo. How it is done: as §1
The Y-Maze test was designed to evaluate the short term memory in experimental mice using reported procedure. Y-maze apparatus is Y shaped with three arms of equivalent size, labelled as A, B, and C. Each arm was 20 cm long, 6 cm wide and 15.5 cm high and was oriented at an angle of 120° from the other two. For each animal the Y maze testing was carried out for 5 min. Mice were placed in one arm, and the order and number of arm entries were recorded. An arm entry was considered to be complete when the hind paws of the mice was completely inside a given arm while alternation was defined as consecutive entries by a mouse into the three different arms. The arena was cleaned using 70% v/v ethanol between each trial to avoid olfactory cues. The escape latency (second) on day 1–5 were recorded for all animals. At the end of 5th day, the spontaneous alteration behavior study was conducted. In spontaneous alteration study, each animal was placed at the center of the Y-Maze apparatus and allowed to move freely through the maze. The series of arm entries were visually recorded. To start behavioral test the mice was set in one arm and recorded the number of arm entries, same arm returns (SAR), and alternate arm returns (AAR) were measured. Percent spontaneous alternation performance (SAP) was calculated by the following formula: 5 %SAP=Active alterationstotal alterations/Possible alterationstotalarmentries−2x100

Where [5] appears, read: vs scopolamine (1 mg/kg) group, CHF. Ext 200 mg/kg, CGA 10 and 30 mg/kg, donepezil 2 mg/kg.

T3 sequence (O42275 24-633): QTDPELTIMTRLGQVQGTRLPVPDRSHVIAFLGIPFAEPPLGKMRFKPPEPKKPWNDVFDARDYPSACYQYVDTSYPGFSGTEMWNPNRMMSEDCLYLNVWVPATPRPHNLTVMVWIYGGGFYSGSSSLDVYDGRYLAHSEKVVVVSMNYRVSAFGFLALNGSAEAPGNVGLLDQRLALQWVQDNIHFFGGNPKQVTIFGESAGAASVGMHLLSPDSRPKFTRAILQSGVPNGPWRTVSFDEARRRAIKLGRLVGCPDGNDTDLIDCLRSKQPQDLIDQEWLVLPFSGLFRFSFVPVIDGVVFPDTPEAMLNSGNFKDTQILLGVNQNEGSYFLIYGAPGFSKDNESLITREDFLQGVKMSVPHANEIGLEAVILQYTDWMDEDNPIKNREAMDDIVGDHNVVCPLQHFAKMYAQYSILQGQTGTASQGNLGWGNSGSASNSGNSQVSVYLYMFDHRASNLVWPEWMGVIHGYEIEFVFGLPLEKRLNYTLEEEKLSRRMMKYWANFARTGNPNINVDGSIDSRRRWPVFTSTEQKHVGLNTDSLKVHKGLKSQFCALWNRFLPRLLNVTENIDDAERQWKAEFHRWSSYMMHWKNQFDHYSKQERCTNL
T1 sequence (Q03311 30-603): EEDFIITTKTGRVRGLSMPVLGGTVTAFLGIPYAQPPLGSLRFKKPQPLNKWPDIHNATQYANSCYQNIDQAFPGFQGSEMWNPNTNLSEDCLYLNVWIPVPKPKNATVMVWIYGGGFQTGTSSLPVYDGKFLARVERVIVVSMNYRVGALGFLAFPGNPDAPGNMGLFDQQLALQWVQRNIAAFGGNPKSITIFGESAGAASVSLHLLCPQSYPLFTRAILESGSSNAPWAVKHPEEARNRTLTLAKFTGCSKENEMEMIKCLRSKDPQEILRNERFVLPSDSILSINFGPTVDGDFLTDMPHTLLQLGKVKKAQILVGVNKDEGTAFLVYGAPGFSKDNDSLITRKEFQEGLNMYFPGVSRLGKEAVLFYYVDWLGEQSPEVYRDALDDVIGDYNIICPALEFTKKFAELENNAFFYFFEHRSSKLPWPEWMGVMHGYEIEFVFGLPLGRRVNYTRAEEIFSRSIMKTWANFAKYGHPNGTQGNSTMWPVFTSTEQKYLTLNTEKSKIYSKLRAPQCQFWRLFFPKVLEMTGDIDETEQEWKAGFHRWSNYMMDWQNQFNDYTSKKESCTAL

The IC50 is the concentration needed to halve the response being measured. On to `O=C(/C=C/c1ccc(O)c(O)c1)O[C@@H]1C[C@](O)(C(=O)O)C[C@@H](O)[C@H]1O` [Compound-I, Chlorogenic acid], for which the “time for exploration of novel object, test phase, long term memory” value in data set [1] (CHF. Ext 100 & 200 mg/kg, CGA 10 & 30 mg/kg, donepezil 2 mg/kg) was “significant (*p < 0.05, **p < 0.01) increase”. Also, the “%DI, long term memory” value in data set [1] (CHF. Ext 100, 200 mg/kg, CGA 10 & 30 mg/kg, donepezil 2 mg/kg) is “significant (*p < 0.05, **p < 0.01) increase”. In addition, the “time with novel object, test phase, short term memory” value in data set [1] (vs scopolamine group (*p < 0.05, **p < 0.01), CHF. Ext 50, 100, 200 mg/kg, CGA 10 and 30 mg/kg, donepezil 2 mg/kg) was “more time with novel object”. Also, the “time for exploration of two objects, sample phase, short term memory” value in data set [1] (vs scopolamine treated group) is reported as “no significant difference”. Further, in data set [1] (vs scopolamine treated group), the “total time spent exploring the two identical objects, sample phase, long term memory” value was “no significant differences”. For the same molecule, the “% BChE activity in cortex and hippocampus” value at BChE is “significantly (***p < 0.001; **p < 0.01) lower”. The “% AChE activity in cortex and hippocampus” value at AChE is given as “significantly (***p < 0.001; **p < 0.01) lower”. Also, in the data set with mice, the “dose range that remained safe and nontoxic” value is on record as “up to 300 mg/kg”. Further, the “% anti-radicals activities (DPPH) in cortex” value in data set [2] (NORT animals, cortex) was determined as 51.43 ± 2.88%. The “% anti-radicals activities (DPPH) in hippocampus” value in data set [2] (NORT animals, hippocampus) was determined as 65.36 ± 1.45%. For the same molecule, in data set [2] (Y-maze test animals, frontal cortex), the “% DPPH inhibition potential in cortex” value turned out to be 47.85 ± 2.11%. The “% DPPH inhibition potential in hippocampus” value in data set [2] (Y-maze test animals, hippocampus) is on record as 44.12 ± 1.77%. Further, the “% AChE Mean ± SEM” value in data set [3] (31.05 µg/mL) is 50±0.4^ ns %; in data set [3] (62.5 µg/mL), 59±0.3 %; in data set [3] (125 µg/mL) it was 68±0.4 %; in data set [3] (250 µg/mL), 76±0.5 %; in data set [3] (500 µg/mL), 82±0.1 %; in data set [3] (1000 µg/mL, listed as Compound -I), 90±0.2^ns %. For the same molecule, the “% AChE Mean ± SEM” value in data set [3] (1000 µg/mL, listed as Compound I) is listed as 90 ± 0.2%. The IC50 in data set [3] (linear regression, read-out: AChE IC50 (converted)) was 87.5 µM. Besides, in data set [4] (day 1-5, vs scopolamine treated group), the escape latency entry was “significant decline (p < 0.001)”. Further, the “total numbers of entries into arms” value in data set [4] (treated groups compared to control group) is reported as “non-significant (p > 0.05) decrease”. Also, the “percentage of alternate arm returns” value in data set [4] (setting [5]) is reported as “significant (*p<0.05; **p < 0.01) increase”. In addition, the “percentage of same arm returns” value in data set [4] (setting [5]) is given as “significant (p < 0.01) reduction”.
